Measurements published in patent US10921327B2, “Probes for quantitative imaging of thiols in various environments” (Baylor College of Medicine, priority 2014, dated 2021).
pKd: −log10 of the molar value. Several values for one entry are separate records, joined by “and”; a condition that tells them apart may be missing. Equal entries are not always repeated. Where two headings read alike, the source gives them in different places.

Legend:
[1] = biological target: BSA (Bos taurus, UniProt P02769); test: Reaction specificity of TQ Green: BSA; design: species or system bovine; details: 5 mM BSA, PBS pH 7.4
Sequence of BSA (P02769 25-607): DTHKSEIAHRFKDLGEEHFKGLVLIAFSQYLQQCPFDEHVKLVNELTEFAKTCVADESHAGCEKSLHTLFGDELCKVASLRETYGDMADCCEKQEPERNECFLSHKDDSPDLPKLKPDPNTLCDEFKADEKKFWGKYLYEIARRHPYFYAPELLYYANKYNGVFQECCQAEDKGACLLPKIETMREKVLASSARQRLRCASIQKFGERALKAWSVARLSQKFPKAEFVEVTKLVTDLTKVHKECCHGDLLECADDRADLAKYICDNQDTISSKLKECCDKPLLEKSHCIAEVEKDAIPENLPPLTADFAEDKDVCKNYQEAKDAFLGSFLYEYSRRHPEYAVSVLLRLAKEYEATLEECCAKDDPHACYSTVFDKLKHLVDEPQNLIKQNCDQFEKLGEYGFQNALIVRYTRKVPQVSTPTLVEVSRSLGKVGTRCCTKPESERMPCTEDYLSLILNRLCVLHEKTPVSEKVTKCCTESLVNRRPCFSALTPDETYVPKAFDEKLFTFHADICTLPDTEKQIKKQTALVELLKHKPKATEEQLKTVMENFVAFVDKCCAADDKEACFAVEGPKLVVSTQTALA
Protocol: For clarity, data points for TQ Green reaction with BSA, Cysteine, and PBS were offset by 0.1 units from each other on the y axis. Data points represent the absorbance of reaction mixtures of TQ Green (32 μM) with cysteine (100 μM, blue), BSA (5 mM, green), GSH (20 mM red) and water (black) in PBS (pH 7.4) at 480 nm, the maximum absorption wavelength for TQ Green.
Proteins containing free thiol groups may also react with TQ Green to affect the measurement of GSH levels. On average, the protein concentration inside cells is 3×10^6 molecules/μm^3, which corresponds to a concentration of 5 mM. Assuming there is one free thiol on each protein molecule, 5 mM of bovine serum albumin (BSA) solution should reasonably mimic intracellular proteins because a) BSA has a free thiol on its surface; and b) the molecular weight of BSA (65 kDa) is close to the average molecular weight of intracellular proteins (˜50 kDa). […] Through these experiments and analyses, Applicants can conclude that TQ Green has good specificity towards GSH under physiological conditions.

[2] = Solubility; format: physicochemical; details: PBS buffer, aqueous buffer
[3] = UV-Vis absorption, fluorescence and quantum yield; format: physicochemical; details: for Quantum Yield (PBS): λex = 479 nm (TQ Green), 406 nm (TQ Green-GSH); for Quantum Yield (Methanol): Rhodamine 123 as standard
From the text: TQ Green absorbs at 479 nm and fluoresces at 590 nm (λex=488 nm, FIG. 3). The extinction coefficients of TQ Green and TQ Green-GSH at their maximum absorption wavelengths are (2.3±0.2)×10^4 M^−1·cm^−1 (a, =479 nm, Table 2) and (1.6±0.2)×10^4 M^−1·cm^−1 (λmax=407 nm, Table 1), respectively. Upon reacting with GSH, the Abs and Fl peaks shift hypsochromically to 406 and 463 nm (λex=405 nm), respectively. The Abs of TQ Green and TQ Green-GSH (the adduct between TQ Green and GSH) are close to 488 and 405 nm, respectively, which are two commonly used laser wavelengths for confocal microscopes. […]
NMR spectra were recorded on a Varian NMR (^1H at 400 MHz) spectrometer. Chemical shifts (δ) were given in ppm with reference to solvent signals [^1H NMR: CDCl3 (7.26), CD3OD (3.31)]. UV-Vis measurements were performed with 2×10 mm quartz cuvette in Cary 60 UV-is Spectrometer. Fluorescence measurements were performed with the same quartz cuvette in Cary Eclipse Fluorescence Spectrophotometer with an excitation slit of 5 nm, an emission slit of 10 nm and PMT at 650 V. Flash chromatography was performed on a Teledyne ISCO CombiFlashRf200. Olympus FV1000 laser scanning confocal microscope system was used for cell imaging. ESI mass spectrometry was measured on a BrukerMS microTOF ESI, at the Shared Equipment Authority at Rice University. Flow cytometry was performed on BD LSR II Flow Cytometer at BCM core facilities.
As summarized in Table 5, quantum yields of synthesized GSH probes and a GSH adduct with Rhodamine 123 as the standard were analyzed. Quantum yields were determined using a comparative method described previously. The bromine atom on the phenyl ring potentially enhances the push-pull effect of the coumarin-based fluorophore, thus increases the quantum yield.

[4] = Equilibrium (dissociation constant) of probe and GSH reaction, UV-Vis/fluorescence; format: binding
Protocol: Applicants also determined Keq between TQ Green and GSH and the relationship of the ratiometric change as a function of GSH concentration. Kd′ is the apparent dissociation constant for the reaction between TQ Green and GSH. The following equation can be derived:
Plotting (R−Rmin)/(Rmax−R) as a function of GSH concentration afforded a superb linear relationship with r^2=0.999 (FIGS. 6-7).
TQ Green was dissolved in PBS buffer (10 mM, pH 7.4) containing 1% DMSO with concentration at 32 μM. GSH was dissolved in the same PBS buffer with concentration from 0-80 mM. Above solutions were mixed at 1:1 ratio. All solutions were protected with nitrogen and stored in glove box to prevent any oxygen entering the solution. Samples of all solutions were taken out at 1, 18, 72, and 144 hours after mixing. UV-Vis and fluorescence were measured for all solutions.
Compounds 3b-d were dissolved in DMSO (10 mM) and 1 eq of 2 M β-mercaptoethanol (BME) was added. Compounds 3a and TQ Green were dissolved in PBS buffer (10 mM, pH 7.4) with 1% DMSO. GSH solution was added to reach a final concentration of 80 mM with compound 3a at 10 μM and TQ Green at 16 μM, respectively. All solutions were then monitored continuously with UV-Vis and fluorimeter for 2 hours (Table 1).

[5] = Log D in octanol-PBS (pH 7.4) biphasic system; format: physicochemical; details: octanol-PBS pH 7.4, read-out: Log D (pH = 7.4)
From the text: To further understand TQ Green distribution between hydrophobic and hydrophilic environments, Applicants measured the Log D values of TQ Green and TQ Green-GSH using an octanol-PBS (pH 7.4) biphasic system (Table 2). […] In addition, Applicants discovered that the absorbance maximum of TQ Green shifts from 480 nm to 455 nm when changing the solvents from PBS to octanol. Applicants hypothesize that if TQ Green is distributed in lipid membranes, the absorbance maximum and fluorescence intensity will change. […] Consistent with the Log D measurements, this experiment also supports the hypothesis that TQ Green accumulates in lipid membranes. Considering the high quantum yield of TQ Green in hydrophobic solvents, lipid enrichment of TQ Green seemingly complicates intracellular GSH quantification. […] However, the Kd′ values may be different under calibration conditions and inside cells, which may introduce a systemic error.

[6] = Reaction kinetics and reversibility of probe with GSH (UV-Vis)
Protocol: The reaction between TQ Green and GSH is reversible.
The second-order rate constant between TQ Green and GSH is 0.150±0.001M^−1·s^−1. There were no appreciable Abs changes observed after 20 minutes. Following a pause for another 80 minutes to ensure that the equilibrium between TQ Green and GSH was fully established, Applicants added two equivalents of an irreversible Michael acceptor (5,6-dihydro-2H-pyran-2-one) to deplete all the GSH in solution (FIG. 4A).
GSH in PBS was added to a solution of TQ Green in PBS buffer (10 mM, pH 7.4) containing 1% DMSO. The final concentrations of GSH and TQ Green were 10 mM and 16 μM, respectively. The solutions were then monitored continuously with UV-Vis spectrometer (FIGS. 21A-D).

With `CCN(CC)c1ccc2cc(/C=C/C(=O)c3ccc(C(=O)O)cc3Br)c(=O)oc2c1` [TQ Green] the “Reaction with BSA” value [1] was “little reaction”, the solubility [2] was greater than 500 µM and the “Abs Max Wavelength” value ([3]; PBS pH 7.4) was 479 nm and 480 nm. For the same compound, the “Fl Emission Max Wavelength” value ([3]; PBS pH 7.4, λex = 488 nm (TQ Green), λex = 405 nm (TQ Green-GSH)) was 590 nm, the “Quantum Yield (PBS)” value [3] was 0.0094±0.0004 and the “Quantum Yield (PBS)” value ([3]; listed as drawing 19) was 0.0094 ± 0.0004. For the same compound, the “Quantum Yield (Methanol)” value [3] was 0.16±0.05, the “Quantum Yield (Methanol)” value ([3]; listed as drawing 18) was 0.16 ± 0.05 and the “Absorbance maximum in octanol” value ([3]; octanol) was 455 nm. For the same compound, the pKd ([4]; deduced from Kd′ and absorption values at 488 nm, read-out: Kd (equilibrium dissociation constant)) was 2.80, the pKd ([4]; reaction with various concentration of GSH in water/PBS pH 7.4, based on UV-Vis, read-out: Kd′ observed (apparent) dissociation constant) was 1.83 and the logD [5] was 0.7. For the same compound, the “Time to reach 95% of conversion” value ([6]; 10 mM GSH in PBS, room temperature, TQ Green 16 μM, probe 3a 10 μM) was roughly 30 min, the “Time to establish equilibrium with GSH” value ([6]; 37° C., intracellular environment, extrapolated) was 15 to 30 min and the “Second-Order Rate Constant” value ([6]; TQ Green and GSH) was 0.150 ± 0.001 M⁻¹ s⁻¹.
